Patent US9480754B2, “Phospholipid ether analogs as cancer-targeting drug vehicles” (Cellectar Biosciences, Inc., priority 2014, dated 2016)

Assays:
Pancreatic Mia Paca-2 = experiment: 124I-CLR1404 tumor uptake, model 21; format: in vivo; conditions: Nude mouse, Carcinoma
Method: (§1) All described animal studies were performed according to animal protocols approved by the Institutional Animal Care and Use Committee. Female athymic nude mice (Hsd:Athymic Nude-Foxnlnu or Crl:NU-Foxnlnu, Charles River Laboratories) about 4 to 5 weeks of age, 16 to 18 g (n=6), were used for human tumor xenograft studies. Mice were anesthetized with isoflurane and injected subcutaneously with viable tumor cells in 100 μl of Dulbecco's PBS (or, for glioma cells, […] of PBS) into the right flank. Inoculum sizes were 1×10^6 (for renal, ovarian, glioma, pancreatic, prostate, and NSCLC models), […] (for colorectal and uterine models), or 3×10^6 (breast).
(§2) Radioiodinated ^124I-CLR1404 was tested in subcutaneous and orthotopic xenografts of 60 different spontaneous, transgenic, human, and rodent malignant cell lines and tumor types. […] Representative examples are of both human (FIG. 5A-5I) and rodent (FIG. 5J-M) tumors.

Head and neck SCC1 = experiment: 124I-CLR1404 tumor uptake, model 26; format: in vivo; conditions: Nude mouse, Squamous cell carcinoma
Method: as §1, §2

Retinoblastoma = experiment: 124I-CLR1404 tumor uptake, model 51; format: in vivo; conditions: Endogenous mouse, Blastoma
Method: as §1, §2

Colon LS-180 = experiment: 124I-CLR1404 tumor uptake, model 10; format: in vivo; conditions: Nude mouse, Adenocarcinoma
Method: as §1, §2

Mammary SCC = experiment: 124I-CLR1404 tumor uptake, model 44; format: in vivo; conditions: ApcMin/+ mouse, Squamous cell carcinoma
Method: as §1, §2

Glioma L9 = experiment: 124I-CLR1404 tumor uptake, model 47; format: in vivo; conditions: Rat xenograft
Method: as §1, §2

Prostate PC-3 = experiment: 124I-CLR1404 tumor uptake, model 1; format: in vivo; conditions: SCID mouse, Adenocarcinoma
Method: as §1, §2

Adrenal RL-251 = experiment: 124I-CLR1404 tumor uptake, model 5; format: in vivo; conditions: SCID mouse, Adenocarcinoma
Method: as §1, §2

Renal cell Caki-2 = experiment: 124I-CLR1404 tumor uptake, model 23; format: in vivo; conditions: Nude mouse (orthotopic), Clear cell carcinoma
Method: as §1, §2

Hepatoma Hep-3B = experiment: 124I-CLR1404 tumor uptake, model 58; format: in vivo; conditions: Nude mouse, Carcinoma
Method: as §1, §2

Colon DLD1 = experiment: 124I-CLR1404 tumor uptake, model 8; format: in vivo; conditions: SCID mouse, Adenocarcinoma
Method: as §1, §2

Prostate MatLyLu = experiment: 124I-CLR1404 tumor uptake, model 37; format: in vivo; conditions: Rat, Adenocarcinoma
Method: as §1, §2

[1] = test system: xenograft, orthotopic and transgenic cancer and cancer stem cell derived animal models; experiment: CLR1404 tumor selectivity across 60 tumor models; format: in vivo, rodent; conditions: 60 different malignant cell lines and tumor types
Method: as §1, §2

Adrenal H-295 = experiment: 124I-CLR1404 tumor uptake, model 4; format: in vivo; conditions: SCID mouse, Adenocarcinoma
Method: as §1, §2

Glioma CNS1 = experiment: 124I-CLR1404 tumor uptake, model 49; format: in vivo; conditions: Rat xenograft
Method: as §1, §2

Pancreatic BXPC3 = experiment: 124I-CLR1404 tumor uptake, model 20; format: in vivo; conditions: Nude mouse, Adenocarcinoma
Method: as §1, §2

Glioblastoma 105 GSC = experiment: 124I-CLR1404 tumor uptake, model 34; format: in vivo; conditions: NOD-SCID mouse (orthotopic), Glioma
Method: as §1, §2

Ovarian HTB-77 = experiment: 124I-CLR1404 tumor uptake, model 18; format: in vivo; conditions: Nude mouse, Adenocarcinoma
Method: as §1, §2

Head and neck SCC6 = experiment: 124I-CLR1404 tumor uptake, model 27; format: in vivo; conditions: Nude mouse, Squamous cell carcinoma
Method: as §1, §2

Cervical-HPV = experiment: 124I-CLR1404 tumor uptake, model 54; format: in vivo; conditions: Endogenous mouse, Adenocarcinoma
Method: as §1, §2

Bladder SV40 = experiment: 124I-CLR1404 tumor uptake, model 36; format: in vivo; conditions: Mouse (orthotopic), Adenocarcinoma
Method: as §1, §2

Prostate LNCap = experiment: 124I-CLR1404 tumor uptake, model 28; format: in vivo; conditions: Mouse, Adenocarcinoma
Method: as §1, §2

Multiple myeloma MM.1S = experiment: 124I-CLR1404 tumor uptake, model 13; format: in vivo; conditions: Nude mouse
Method: as §1, §2

Colon CT26 = experiment: 124I-CLR1404 tumor uptake, model 40; format: in vivo; conditions: SCID mouse, Adenocarcinoma
Method: as §1, §2

Breast 4T1 = experiment: 124I-CLR1404 tumor uptake, model 35; format: in vivo; conditions: Endogenous mouse (orthotopic), Adenocarcinoma
Method: as §1, §2

Pirc rat colon adenoma = experiment: 124I-CLR1404 tumor uptake, model 60; format: in vivo
Method: as §1, §2

Colon HT-29 = experiment: 124I-CLR1404 tumor uptake, model 9; format: in vivo; conditions: SCID mouse, Adenocarcinoma
Method: as §1, §2

Melanoma A-375 = experiment: 124I-CLR1404 tumor uptake, model 12; format: in vivo; conditions: Nude mouse
Method: as §1, §2

Ovarian Ovcar-3 = experiment: 124I-CLR1404 tumor uptake, model 19; format: in vivo; conditions: Nude mouse, Adenocarcinoma
Method: as §1, §2

Glioma C6 = experiment: 124I-CLR1404 tumor uptake, model 48; format: in vivo; conditions: Rat xenograft
Method: as §1, §2

Hepatoma Hep-G2 = experiment: 124I-CLR1404 tumor uptake, model 59; format: in vivo; conditions: Nude mouse, Carcinoma
Method: as §1, §2

Uterine MES SA/Dx5 = experiment: 124I-CLR1404 tumor uptake, model 32; format: in vivo; conditions: Nude mouse, Sarcoma
Method: as §1, §2

[2] = test system: Triple negative breast MDA-MB231; experiment: 124I-CLR1404 tumor uptake, model 31; format: in vivo; conditions: Nude mouse, Adenocarcinoma
Method: as §1, §2

Colon-51 = experiment: 124I-CLR1404 tumor uptake, model 6; format: in vivo; conditions: SCID mouse, Adenocarcinoma
Method: as §1, §2

Pancreatic Kras = experiment: 124I-CLR1404 tumor uptake, model 53; format: in vivo; conditions: Endogenous mouse, Adenocarcinoma
Method: as §1, §2

Esophageal = experiment: 124I-CLR1404 tumor uptake, model 55; format: in vivo; conditions: Endogenous Mouse, Adenocarcinoma
Method: as §1, §2

Glioblastoma 22 GSC = experiment: 124I-CLR1404 tumor uptake, model 33; format: in vivo; conditions: NOD-SCID mouse (orthotopic), Glioma
Method: as §1, §2

Intestinal polyp = experiment: 124I-CLR1404 tumor uptake, model 56; format: in vivo; conditions: Endogenous mouse, Adenoma (benign)
Method: as §1, §2

Breast MCF-7 = experiment: 124I-CLR1404 tumor uptake, model 30; format: in vivo; conditions: Rat, Adenocarcinoma
Method: as §1, §2

Neuroblastoma Lan5 = experiment: 124I-CLR1404 tumor uptake, model 17; format: in vivo; conditions: Nude mouse
Method: as §1, §2

Renal cell ACHN = experiment: 124I-CLR1404 tumor uptake, model 24; format: in vivo; conditions: Nude mouse (orthotopic), Adenocarcinoma
Method: as §1, §2

Pancreatic c-myc = experiment: 124I-CLR1404 tumor uptake, model 52; format: in vivo; conditions: Endogenous mouse, Adenocarcinoma
Method: as §1, §2

Neuroblastoma SK-N-AS = experiment: 124I-CLR1404 tumor uptake, model 14; format: in vivo; conditions: Nude mouse
Method: as §1, §2

Colon Pirc = experiment: 124I-CLR1404 tumor uptake, model 41; format: in vivo; conditions: Autochthonous Pirc rat, Adenocarcinoma
Method: as §1, §2

Glioblastoma U87 = experiment: 124I-CLR1404 tumor uptake, model 11; format: in vivo; conditions: Nude mouse and NOD-SCID, Glioma
Method: as §1, §2

Compound: C[N+](C)(C)CCOP(=O)([O-])OCCCCCCCCCCCCCCCCCCc1ccc(I)cc1 [^124I-CLR1404]
- Uptake (Pancreatic Mia Paca-2): Yes (Tumor uptake was considered positive if tumor to muscle ratio was greater than 3.)
- Uptake (Head and neck SCC1): Yes (Tumor uptake was considered positive if tumor to muscle ratio was greater than 3.)
- Uptake (Retinoblastoma): Yes (Tumor uptake was considered positive if tumor to muscle ratio was greater than 3.)
- Uptake (Colon LS-180): Yes (Tumor uptake was considered positive if tumor to muscle ratio was greater than 3.)
- Uptake (Mammary SCC): Yes (Tumor uptake was considered positive if tumor to muscle ratio was greater than 3.)
- Uptake (Glioma L9): Yes (Tumor uptake was considered positive if tumor to muscle ratio was greater than 3.)
- Uptake (Prostate PC-3): Yes (Tumor uptake was considered positive if tumor to muscle ratio was greater than 3.)
- Uptake (Adrenal RL-251): Yes (Tumor uptake was considered positive if tumor to muscle ratio was greater than 3.)
- Uptake (Renal cell Caki-2): Yes (Tumor uptake was considered positive if tumor to muscle ratio was greater than 3.)
- Uptake (Hepatoma Hep-3B): No (Tumor:muscle ratio less than or equal to 2 was considered negative.)
- Uptake (Colon DLD1): Yes (Tumor uptake was considered positive if tumor to muscle ratio was greater than 3.)
- Uptake (Prostate MatLyLu): Yes (Tumor uptake was considered positive if tumor to muscle ratio was greater than 3.)
- tumor localization after intravenous administration [1]: localized in almost all primary and metastatic malignant tumors
- Uptake (Adrenal H-295): Yes (Tumor uptake was considered positive if tumor to muscle ratio was greater than 3.)
- Uptake (Glioma CNS1): Yes (Tumor uptake was considered positive if tumor to muscle ratio was greater than 3.)
- Uptake (Pancreatic BXPC3): Yes (Tumor uptake was considered positive if tumor to muscle ratio was greater than 3.)
- Uptake (Glioblastoma 105 GSC): Yes (Tumor uptake was considered positive if tumor to muscle ratio was greater than 3.)
- Uptake (Ovarian HTB-77): Yes (Tumor uptake was considered positive if tumor to muscle ratio was greater than 3.)
- Uptake (Head and neck SCC6): Yes (Tumor uptake was considered positive if tumor to muscle ratio was greater than 3.)
- Uptake (Cervical-HPV): Yes (Tumor uptake was considered positive if tumor to muscle ratio was greater than 3.)
- Uptake (Bladder SV40): Yes (Tumor uptake was considered positive if tumor to muscle ratio was greater than 3.)
- Uptake (Prostate LNCap): Yes (Tumor uptake was considered positive if tumor to muscle ratio was greater than 3.)
- Uptake (Multiple myeloma MM.1S): Yes (Tumor uptake was considered positive if tumor to muscle ratio was greater than 3.)
- Uptake (Colon CT26): Yes (Tumor uptake was considered positive if tumor to muscle ratio was greater than 3.)
- Uptake (Breast 4T1): Yes (Tumor uptake was considered positive if tumor to muscle ratio was greater than 3.)
- Uptake (Pirc rat colon adenoma): No (Tumor:muscle ratio less than or equal to 2 was considered negative.)
- Uptake (Colon HT-29): Yes (Tumor uptake was considered positive if tumor to muscle ratio was greater than 3.)
- Uptake (Melanoma A-375): Yes (Tumor uptake was considered positive if tumor to muscle ratio was greater than 3.)
- Uptake (Ovarian Ovcar-3): Yes (Tumor uptake was considered positive if tumor to muscle ratio was greater than 3.)
- Uptake (Glioma C6): Yes (Tumor uptake was considered positive if tumor to muscle ratio was greater than 3.)
- Uptake (Hepatoma Hep-G2): No (Tumor:muscle ratio less than or equal to 2 was considered negative.)
- Uptake (Uterine MES SA/Dx5): Yes (Tumor uptake was considered positive if tumor to muscle ratio was greater than 3.)
- Uptake [2]: Yes (Tumor uptake was considered positive if tumor to muscle ratio was greater than 3.)
- Uptake (Colon-51): Yes (Tumor uptake was considered positive if tumor to muscle ratio was greater than 3.)
- Uptake (Pancreatic Kras): Yes (Tumor uptake was considered positive if tumor to muscle ratio was greater than 3.)
- Uptake (Esophageal): Yes (Tumor uptake was considered positive if tumor to muscle ratio was greater than 3.)
- Uptake (Glioblastoma 22 GSC): Yes (Tumor uptake was considered positive if tumor to muscle ratio was greater than 3.)
- Uptake (Intestinal polyp): No (Tumor:muscle ratio less than or equal to 2 was considered negative.)
- Uptake (Breast MCF-7): Yes (Tumor uptake was considered positive if tumor to muscle ratio was greater than 3.)
- Uptake (Neuroblastoma Lan5): Yes (Tumor uptake was considered positive if tumor to muscle ratio was greater than 3.)
- Uptake (Renal cell ACHN): Yes (Tumor uptake was considered positive if tumor to muscle ratio was greater than 3.)
- Uptake (Pancreatic c-myc): Yes (Tumor uptake was considered positive if tumor to muscle ratio was greater than 3.)
- Uptake (Neuroblastoma SK-N-AS): Yes (Tumor uptake was considered positive if tumor to muscle ratio was greater than 3.)
- Uptake (Colon Pirc): Yes (Tumor uptake was considered positive if tumor to muscle ratio was greater than 3.)
- Uptake (Glioblastoma U87): Yes (Tumor uptake was considered positive if tumor to muscle ratio was greater than 3.)
